Experimental data published in ChEMBL document CHEMBL1201862, “PubChem BioAssay data set” (2004).
Activity calls are given as the source filed them.

Experiments:
[1] = biological target: T1, Tyrosine-protein phosphatase non-receptor type 7 (Homo sapiens, UniProt P35236); assay: SAR analysis of chemical inhibitors of HePTP using a Fluorescent assay - Set 2. [Related pubchem assays (depositor defined):AID1059, AID1077, AID1661, AID2085, AID521]; format: functional
T1 sequence (P35236 whole entry): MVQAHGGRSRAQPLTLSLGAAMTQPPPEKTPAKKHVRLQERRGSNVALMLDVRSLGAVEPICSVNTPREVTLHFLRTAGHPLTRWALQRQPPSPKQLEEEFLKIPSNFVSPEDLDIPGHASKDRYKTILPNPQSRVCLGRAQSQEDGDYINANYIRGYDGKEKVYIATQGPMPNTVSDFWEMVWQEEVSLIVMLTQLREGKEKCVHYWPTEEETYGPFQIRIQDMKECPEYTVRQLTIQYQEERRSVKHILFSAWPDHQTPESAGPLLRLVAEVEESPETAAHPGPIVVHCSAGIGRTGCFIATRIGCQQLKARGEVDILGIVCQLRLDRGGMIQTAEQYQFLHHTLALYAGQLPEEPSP

[2] = biological target: Dual specificity protein phosphatase 3 (Homo sapiens, UniProt P51452); assay: SAR VHR1 Fluorescent Assay for In Vitro dose response studies Set 2. [Related pubchem assays (depositor defined):AID1654, AID1661, AID1878]; format: functional
[3] = biological target: 1-phosphatidylinositol 4,5-bisphosphate phosphodiesterase beta-3 (Homo sapiens, UniProt Q01970); assay: Fluorescence-based biochemical high throughput dose response assay to identify inhibitors of phospholipase C isozymes (PLC-B3).
[4] = biological target: T2, C-C chemokine receptor type 6 (Homo sapiens, UniProt P51684); assay: CCR6 receptor antagonists, dose response, cell-based, luminescent beta-arrestin readout (AID 504728); format: functional
T2 sequence (P51684 whole entry): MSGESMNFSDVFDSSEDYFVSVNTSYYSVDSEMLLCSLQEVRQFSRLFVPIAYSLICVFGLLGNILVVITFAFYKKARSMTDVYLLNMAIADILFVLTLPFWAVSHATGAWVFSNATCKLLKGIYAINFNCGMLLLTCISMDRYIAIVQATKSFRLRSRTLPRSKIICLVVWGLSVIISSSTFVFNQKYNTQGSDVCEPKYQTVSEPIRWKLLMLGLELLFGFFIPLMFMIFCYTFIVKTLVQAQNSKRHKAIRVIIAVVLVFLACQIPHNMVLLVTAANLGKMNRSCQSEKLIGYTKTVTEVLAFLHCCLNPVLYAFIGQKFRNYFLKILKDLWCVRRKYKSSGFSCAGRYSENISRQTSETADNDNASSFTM

[5] = Luminescence-based dose response cell-based high throughput screening assay for cytotoxic compounds using the IEC-6 intestinal epithelial cell line. [Related pubchem assays: 1858 (Summary AID.), 1825 (Counterscreen.), 1907 (Confirmation screen.)]; format: functional
[6] = inhibitors of firefly luciferase expression or activity, dose response, H4 neuroglioma cells, luminescence (AID 1990); format: functional, cell-based
[7] = Luminescence Cell-Based Dose Response HTS to Identify Inhibitors of 5'UTR Stem-Loop Driven Prion Protein mRNA Translation in H4 Neuroglioblastoma Cells. [Related pubchem assays: 1827 (Project Summary), 1813 (Primary HTS)]; format: functional
[8] = biological target: T3, Sentrin-specific protease 8 (Homo sapiens, UniProt Q96LD8); format: functional
T3 sequence (Q96LD8 whole entry): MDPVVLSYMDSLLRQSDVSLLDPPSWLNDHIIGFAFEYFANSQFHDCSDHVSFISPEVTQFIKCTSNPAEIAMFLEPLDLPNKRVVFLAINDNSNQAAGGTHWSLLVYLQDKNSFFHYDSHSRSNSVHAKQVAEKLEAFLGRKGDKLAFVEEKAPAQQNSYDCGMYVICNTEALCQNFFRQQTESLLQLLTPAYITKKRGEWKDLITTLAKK

Hexokinase HKDC1 = biological target: T4, Hexokinase HKDC1 (Homo sapiens, UniProt Q2TB90); assay: SAR analysis of small molecule inhibitors of hexokinase domain containing I (HKDC1). [Related pubchem assays (depositor defined):AID493160, AID493190]; format: functional
T4 sequence (Q2TB90 whole entry): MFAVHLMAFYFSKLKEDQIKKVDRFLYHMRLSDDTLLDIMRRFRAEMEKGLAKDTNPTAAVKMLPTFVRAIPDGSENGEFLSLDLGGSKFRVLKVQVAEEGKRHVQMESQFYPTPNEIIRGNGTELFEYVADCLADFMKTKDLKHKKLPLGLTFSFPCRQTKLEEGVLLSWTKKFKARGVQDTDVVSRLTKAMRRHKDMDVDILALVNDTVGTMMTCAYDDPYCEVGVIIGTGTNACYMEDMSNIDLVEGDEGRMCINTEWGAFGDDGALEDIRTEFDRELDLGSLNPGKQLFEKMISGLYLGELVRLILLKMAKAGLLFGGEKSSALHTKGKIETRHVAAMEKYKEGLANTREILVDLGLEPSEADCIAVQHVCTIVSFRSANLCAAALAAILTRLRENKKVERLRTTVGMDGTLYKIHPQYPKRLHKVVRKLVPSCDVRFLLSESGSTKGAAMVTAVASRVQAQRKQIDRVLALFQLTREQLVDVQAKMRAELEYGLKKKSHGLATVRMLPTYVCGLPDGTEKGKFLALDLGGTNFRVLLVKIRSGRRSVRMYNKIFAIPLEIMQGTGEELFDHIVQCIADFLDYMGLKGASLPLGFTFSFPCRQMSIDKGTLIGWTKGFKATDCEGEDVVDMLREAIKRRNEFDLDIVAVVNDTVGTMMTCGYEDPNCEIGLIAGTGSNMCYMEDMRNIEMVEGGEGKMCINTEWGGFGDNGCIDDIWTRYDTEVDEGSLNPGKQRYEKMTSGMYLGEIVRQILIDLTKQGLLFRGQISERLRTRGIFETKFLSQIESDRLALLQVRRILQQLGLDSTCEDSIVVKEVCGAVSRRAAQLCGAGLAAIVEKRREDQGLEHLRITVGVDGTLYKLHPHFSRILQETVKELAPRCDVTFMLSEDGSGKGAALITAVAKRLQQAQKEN

[9] = biological target: Cystic fibrosis transmembrane conductance regulator/Golgi-associated PDZ and coiled-coil motif-containing protein (Homo sapiens, UniProt P13569+Q9HD26); assay: CAL PDZ peptide-binding inhibitors, dose response, biochemical, fluorescence polarization, Cerulean-tagged CAL PDZ, cherry-picks (AID 504773)
[10] = biological target: Transitional endoplasmic reticulum ATPase (Homo sapiens, UniProt P55072); assay: p97 ATPase inhibitors, dose response, biochemical (AID 1534)
[11] = biological target: Induced myeloid leukemia cell differentiation protein Mcl-1 (Homo sapiens, UniProt Q07820); format: functional
Cytochrome P450 2D6 = Cytochrome P450 2D6 (Homo sapiens, UniProt P10635);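 further: CYP2D6 member of a cytochrome P450 panel assay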
Sequence of Cytochrome P450 2D6 (P10635 whole entry): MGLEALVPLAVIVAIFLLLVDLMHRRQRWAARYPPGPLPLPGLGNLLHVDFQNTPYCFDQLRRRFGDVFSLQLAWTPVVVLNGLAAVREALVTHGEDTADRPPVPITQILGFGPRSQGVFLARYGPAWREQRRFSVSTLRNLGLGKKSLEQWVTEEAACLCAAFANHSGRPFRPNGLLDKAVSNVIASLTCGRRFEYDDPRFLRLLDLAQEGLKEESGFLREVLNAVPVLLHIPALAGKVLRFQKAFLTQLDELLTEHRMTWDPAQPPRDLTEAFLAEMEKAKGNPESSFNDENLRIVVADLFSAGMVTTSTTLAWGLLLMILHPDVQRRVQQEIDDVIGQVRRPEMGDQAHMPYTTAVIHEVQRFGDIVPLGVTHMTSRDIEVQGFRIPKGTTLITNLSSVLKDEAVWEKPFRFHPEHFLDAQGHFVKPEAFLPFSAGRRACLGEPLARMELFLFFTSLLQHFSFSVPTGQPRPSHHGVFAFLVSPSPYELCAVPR

Sequence of Cystic fibrosis transmembrane conductance regulator/Golgi-associated PDZ and coiled-coil motif-containing protein (P13569 whole entry, other chains not shown): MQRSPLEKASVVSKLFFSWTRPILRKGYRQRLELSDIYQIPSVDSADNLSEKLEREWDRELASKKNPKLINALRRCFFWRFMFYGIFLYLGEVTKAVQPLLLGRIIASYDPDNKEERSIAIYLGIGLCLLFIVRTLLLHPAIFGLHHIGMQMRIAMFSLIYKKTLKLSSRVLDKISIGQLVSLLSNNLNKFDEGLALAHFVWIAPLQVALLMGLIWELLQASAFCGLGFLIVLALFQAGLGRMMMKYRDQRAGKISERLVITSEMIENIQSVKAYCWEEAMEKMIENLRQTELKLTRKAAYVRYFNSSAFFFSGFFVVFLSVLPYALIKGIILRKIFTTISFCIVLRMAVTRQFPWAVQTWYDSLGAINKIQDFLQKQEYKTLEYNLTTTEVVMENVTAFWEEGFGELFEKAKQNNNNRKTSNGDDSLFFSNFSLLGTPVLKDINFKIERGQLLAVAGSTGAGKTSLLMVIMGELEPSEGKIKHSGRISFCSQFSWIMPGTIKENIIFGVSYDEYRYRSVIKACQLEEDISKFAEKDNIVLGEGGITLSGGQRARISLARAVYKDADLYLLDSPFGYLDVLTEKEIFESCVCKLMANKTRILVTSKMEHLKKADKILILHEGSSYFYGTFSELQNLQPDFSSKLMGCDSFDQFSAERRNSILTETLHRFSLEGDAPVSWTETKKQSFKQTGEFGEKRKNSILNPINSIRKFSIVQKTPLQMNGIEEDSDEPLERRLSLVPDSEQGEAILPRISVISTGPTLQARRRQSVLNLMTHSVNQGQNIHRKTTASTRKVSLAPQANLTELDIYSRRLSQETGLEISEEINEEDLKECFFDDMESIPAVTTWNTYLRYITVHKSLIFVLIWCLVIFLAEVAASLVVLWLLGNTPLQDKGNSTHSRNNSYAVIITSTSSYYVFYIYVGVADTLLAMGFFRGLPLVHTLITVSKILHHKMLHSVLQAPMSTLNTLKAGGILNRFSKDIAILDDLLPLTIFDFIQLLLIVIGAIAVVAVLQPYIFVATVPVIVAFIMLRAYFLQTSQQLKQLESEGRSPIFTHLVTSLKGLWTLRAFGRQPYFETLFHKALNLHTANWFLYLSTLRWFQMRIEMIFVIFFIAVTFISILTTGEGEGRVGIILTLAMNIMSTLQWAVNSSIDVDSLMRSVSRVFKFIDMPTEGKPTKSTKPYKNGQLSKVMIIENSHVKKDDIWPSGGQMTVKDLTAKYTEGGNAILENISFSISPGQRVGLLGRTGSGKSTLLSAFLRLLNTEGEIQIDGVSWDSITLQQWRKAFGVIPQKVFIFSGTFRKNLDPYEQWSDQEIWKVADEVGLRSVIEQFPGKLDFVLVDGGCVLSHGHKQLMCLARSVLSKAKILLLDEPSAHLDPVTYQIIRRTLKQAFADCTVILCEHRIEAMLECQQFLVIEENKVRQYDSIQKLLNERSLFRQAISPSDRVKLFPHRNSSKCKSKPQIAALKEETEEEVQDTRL
Sequence of Induced myeloid leukemia cell differentiation protein Mcl-1 (Q07820 whole entry): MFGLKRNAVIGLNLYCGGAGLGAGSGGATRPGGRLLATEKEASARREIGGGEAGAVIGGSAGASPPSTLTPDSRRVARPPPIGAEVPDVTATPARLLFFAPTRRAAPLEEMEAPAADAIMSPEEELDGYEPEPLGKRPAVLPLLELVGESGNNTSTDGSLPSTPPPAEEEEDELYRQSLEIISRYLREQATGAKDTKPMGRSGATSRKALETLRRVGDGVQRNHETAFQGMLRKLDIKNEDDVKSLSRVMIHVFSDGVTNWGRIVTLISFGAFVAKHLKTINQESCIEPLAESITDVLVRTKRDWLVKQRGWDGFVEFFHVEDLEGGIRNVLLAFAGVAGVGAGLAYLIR
Sequence of Transitional endoplasmic reticulum ATPase (P55072 whole entry): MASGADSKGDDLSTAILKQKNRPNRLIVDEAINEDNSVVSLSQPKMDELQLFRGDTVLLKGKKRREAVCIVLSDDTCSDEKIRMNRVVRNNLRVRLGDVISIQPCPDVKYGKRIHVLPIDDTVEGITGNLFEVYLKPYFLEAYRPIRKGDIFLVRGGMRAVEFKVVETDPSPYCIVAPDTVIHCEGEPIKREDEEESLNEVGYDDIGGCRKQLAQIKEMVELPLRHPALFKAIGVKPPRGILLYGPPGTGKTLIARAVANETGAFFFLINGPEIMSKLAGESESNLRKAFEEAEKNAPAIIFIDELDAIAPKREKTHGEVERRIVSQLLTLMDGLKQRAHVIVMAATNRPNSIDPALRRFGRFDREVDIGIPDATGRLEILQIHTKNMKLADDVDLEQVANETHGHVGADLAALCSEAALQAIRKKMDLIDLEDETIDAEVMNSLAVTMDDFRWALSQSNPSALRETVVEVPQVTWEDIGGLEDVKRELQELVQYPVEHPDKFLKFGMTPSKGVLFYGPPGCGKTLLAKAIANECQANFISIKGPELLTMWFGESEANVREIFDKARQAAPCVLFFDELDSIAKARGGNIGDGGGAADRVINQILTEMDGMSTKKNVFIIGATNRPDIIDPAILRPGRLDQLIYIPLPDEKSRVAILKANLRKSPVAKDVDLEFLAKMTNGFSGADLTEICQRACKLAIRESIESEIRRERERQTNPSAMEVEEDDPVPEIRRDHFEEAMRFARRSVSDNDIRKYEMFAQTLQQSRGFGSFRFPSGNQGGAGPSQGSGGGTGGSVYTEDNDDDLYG
Sequence of Dual specificity protein phosphatase 3 (P51452 whole entry): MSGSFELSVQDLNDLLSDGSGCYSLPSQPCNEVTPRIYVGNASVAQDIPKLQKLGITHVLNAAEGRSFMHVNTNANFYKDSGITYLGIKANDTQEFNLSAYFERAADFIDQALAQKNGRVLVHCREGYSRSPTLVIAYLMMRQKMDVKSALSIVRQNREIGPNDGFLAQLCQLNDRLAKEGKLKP
Sequence of 1-phosphatidylinositol 4,5-bisphosphate phosphodiesterase beta-3 (Q01970 whole entry): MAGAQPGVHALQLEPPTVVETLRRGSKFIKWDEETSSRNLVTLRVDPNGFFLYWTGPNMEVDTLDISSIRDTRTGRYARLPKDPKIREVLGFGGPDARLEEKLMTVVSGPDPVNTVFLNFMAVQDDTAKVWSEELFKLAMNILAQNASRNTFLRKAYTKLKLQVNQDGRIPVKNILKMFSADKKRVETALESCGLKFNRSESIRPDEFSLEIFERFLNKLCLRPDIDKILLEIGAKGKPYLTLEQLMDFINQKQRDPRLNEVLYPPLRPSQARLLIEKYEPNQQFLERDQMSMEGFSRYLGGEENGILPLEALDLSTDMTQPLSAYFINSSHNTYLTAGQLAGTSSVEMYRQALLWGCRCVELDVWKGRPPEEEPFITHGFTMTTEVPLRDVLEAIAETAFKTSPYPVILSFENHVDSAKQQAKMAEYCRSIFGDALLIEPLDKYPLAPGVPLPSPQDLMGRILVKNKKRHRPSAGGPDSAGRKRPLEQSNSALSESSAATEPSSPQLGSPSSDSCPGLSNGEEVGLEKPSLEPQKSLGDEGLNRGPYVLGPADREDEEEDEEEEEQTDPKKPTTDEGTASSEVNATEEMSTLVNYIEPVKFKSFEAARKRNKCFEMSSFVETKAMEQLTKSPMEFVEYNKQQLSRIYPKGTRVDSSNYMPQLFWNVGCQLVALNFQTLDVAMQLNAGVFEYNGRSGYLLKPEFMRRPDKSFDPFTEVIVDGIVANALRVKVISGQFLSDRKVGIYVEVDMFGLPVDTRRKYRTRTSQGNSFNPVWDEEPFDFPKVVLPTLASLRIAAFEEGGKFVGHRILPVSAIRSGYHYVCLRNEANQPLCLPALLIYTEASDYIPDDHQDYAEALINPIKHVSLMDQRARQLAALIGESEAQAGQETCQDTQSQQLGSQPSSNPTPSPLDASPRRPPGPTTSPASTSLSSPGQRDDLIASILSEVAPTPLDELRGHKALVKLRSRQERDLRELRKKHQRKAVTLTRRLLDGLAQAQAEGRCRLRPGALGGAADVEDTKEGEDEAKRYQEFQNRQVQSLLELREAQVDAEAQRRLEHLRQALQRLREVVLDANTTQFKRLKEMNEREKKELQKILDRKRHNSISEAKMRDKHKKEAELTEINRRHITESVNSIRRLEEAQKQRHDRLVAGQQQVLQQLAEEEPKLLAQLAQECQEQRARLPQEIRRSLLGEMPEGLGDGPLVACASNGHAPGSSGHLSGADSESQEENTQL

CCc1nnc(NS(=O)(=O)c2ccc(NC(=S)NC(=O)/C=C/c3ccc(C(C)C)cc3)cc2)s1
IC50 [1]: 5.99 µM (active)
IC50 [2]: 15 µM (active)

O=C1C(Nc2ccc(O)cc2)=C/C(=N/S(=O)(=O)c2cccs2)c2ccccc21
IC50 [3]: > 40.8 µM (inactive)
IC50 [4]: > 66.6 µM (inactive)
IC50 [5]: 0.428 µM (active)
EC50 [6]: 2.88 µM (inconclusive)
EC50 [7]: 0.236 µM (active)

COC(=O)C(O)(c1c(C)[nH]n(-c2ccccc2)c1=O)C(F)(F)F (stereo not drawn)
IC50 [8]: 2.43 µM (active)

COc1ccc(S(=O)(=O)Nc2cc(SCC(=O)O)c(O)c3ccccc23)cc1
IC50 (Hexokinase HKDC1): 10.5 µM (active)
AC50 [9]: 33.1 µM (active)

CC1CC(=O)c2c(cc3c(-c4c(O)cc(O)c5c(O)c6c(cc45)OC(C)CC6=O)c(O)cc(O)c3c2O)O1 (stereo not drawn) [CEPHALOCHROMIN]
IC50 [10]: 43.9 µM (not active)
IC50 [11]: 1.49 µM (active)

O=C(/C=C/c1ccco1)Nc1ccc(Oc2ccccc2)cc1
AC50 (Cytochrome P450 2D6): 4.47 µM (inconclusive)
